# Reference: US9950993B2 (Rutgers, The State University of New Jersey, priority 2015, dated 2018)
# System: Escherichia coli W4573
# Test: Test A: MIC-based assay for efflux pump inhibition (enhancement of minocycline MIC)
# Format: cell-based
# Settings: ratio of minocycline MIC in absence to MIC in presence of test compound, test compound at 12.5 ug/ml (27-48 μM)
# Method: Test A. Minimum Inhibitory Concentration (MIC)-Based Assay for Efflux Pump Inhibition:
# MIC-based assays were used to evaluate the impact of potential efflux pump inhibiting (EPI) compounds on the MIC of minocycline, an antibiotic known to be a substrate for Gram-negative bacterial efflux pumps. The assays were conducted in accordance with Clinical and Laboratory Standards Institute (CLSI) guidelines for broth microdilution, with the modification that assays were conducted in the presence and absence of the test EPI compounds. When present, the EPI compounds were added to cation-adjusted Mueller-Hinton (CAMH) broth (Becton, Dickinson and Co., Franklin Lakes, N.J.) at a final concentration of 12.5 µg/mL.
# Log-phase Gram-negative bacteria were added to 96-well microtiter plates (at 5×10^5 colony forming units (CFU) per mL) containing two-fold serial dilutions of minocycline in CAMH broth either in the absence or presence of the test EPI compounds. In all assays, each serial dilution of minocycline was present in duplicate. The final volume in each well was 0.1 mL, and the microtiter plates were incubated aerobically for 24 hours at 37° C. Bacterial growth was then monitored by measuring the optical density (OD) at 600 nm using a VersaMax® plate reader (Molecular Devices, Inc., Sunnyvale, Calif.), with the MIC being defined as the lowest compound concentration at which growth was ≥90% inhibited compared to antibiotic-free control. The following Gram-negative bacterial strains were included in these assays:
# Escherichia coli W4573, ATCC 25922, and ATCC BAA-201 (an extended spectrum […] (ESBL)-producing strain that expresses the TEM-3 β-lactamase).
# The efflux pump mutant E. coli strain N43 (acrA1) was used as a positive control.
# The enhancement is the ratio of the minocycline MIC in the absence of test compound to the minocycline MIC in the presence of test compound.
row,Structure (SMILES),Enhancement
1,"NCCC[C@H](N)CNC(=O)CC(c1ccccc1)c1ccccc1 [Example 9, (S)—N-(2,5-diaminopentyl)-3,3-diphenylpropanamide]",8
2,"NCCC[C@H](N)CNC(=O)CC(Cc1ccccc1)Cc1ccccc1 [Example 12, (S)-3-Benzyl-N-(2,5-diaminopentyl)-4-phenylbutanamide]",16
3,"NCCC[C@H](N)CNC(=O)CCCc1ccccc1 [Example 10, (S)—N-(2,5-diaminopentyl)-4-phenylbutanamide]",4
4,"NC[C@H](N)CNC(=O)C(CCc1ccccc1)CCc1ccccc1 [Example 4, (S)—N-(2,3-diaminopropyl)-2-phenethyl-4-phenylbutanamide]",1
5,"NCCC[C@@H](N)CNC(=O)C(CCc1ccccc1)CCc1ccccc1 [Example 2, (R)—N-(2,5-diaminopentyl)-2-phenethyl-4-phenylbutanamide]",64
6,"NC[C@@H](N)CCCNC(=O)C(CCc1ccccc1)CCc1ccccc1 [Example 5, (S)—N-(4,5-diaminopentyl)-2-phenethyl-4-phenylbutanamide]",2
7,"NCCC[C@H](N)CNC(=O)C(Cc1ccccc1)Cc1ccccc1 [Example 7, (S)-2-benzyl-N-(2,5-diaminopentyl)-3-phenylpropanamide]",8
8,"NCCC[C@H](N)CNC(=O)CC(CCc1ccccc1)CCc1ccccc1 [Example 13, (S)—N-(2,5-diaminopentyl)-3-phenethyl-5-phenylpentanamide]",512
9,"NCC[C@H](N)CNC(=O)C(CCc1ccccc1)CCc1ccccc1 [Example 3, (S)—N-(2,4-diaminobutyl)-2-phenethyl-4-phenylbutanamide]",8
10,"NCCC[C@H](N)CNC(=O)C(CCc1ccccc1)CCc1ccccc1 [Example 1, (S)—N-(2,5-diaminopentyl)-2-phenethyl-4-phenylbutanamide]",8
11,"NCCC[C@H](N)CNC(=O)C(c1ccccc1)c1ccccc1 [Example 8, (S)—N-(2,5-diaminopentyl)-2,2-diphenylacetamide]",4
12,"NCCC[C@H](N)CNC(=O)C(CCc1ccccc1)Cc1ccccc1 (stereo partly drawn) [Example 6, 2-benzyl-N—((S)-2,5-diaminopentyl)-4-phenylbutanamide]",4
13,COc1ccc(CCC(CCc2ccccc2)C(=O)NC[C@@H](N)CCCN)cc1 (stereo partly shown) [Example 11],4
